# From patent publication US9828344B2, “Inhibitors of the notch signaling pathway and secretion for use in medicine” (Leibniz-Institut für Altersforschung Fritz-Lipmann-Institut …, priority 2012, dated 2017)
# Peptide text beside a SMILES is read from it. * marks the point of attachment. Cbz = O=C(OCc1ccccc1)*
# What was measured:
# [1] = system: NotchΔE-EGFP; assay: cells; assay type: cell-based; details: for activity in NotchΔE-EGFP cells (enuc/nuc ratios): SAR and prior-art comparison, FIG. 5a/5b; for change of reporter localization quantified by automated microscopy: assay validation, monensin 6 h dose-dependent, MG132 1 μM 16 h
# Text: To identify novel regulatory factors involved in Notch trafficking/processing an image-based high content screen was set up. […] NotchΔE-EGFP is a direct substrate for γ-secretase at the PM, and under physiological conditions is proteolytically processed to NICD-EGFP that translocates into the nucleus (for scheme see FIG. 1b), resulting in a strong nuclear EGFP-staining in steady state^15 (FIG. 1d). […] Importantly, changes in subcellular localization of the reporter are amenable to quantitation by automated microscopy^15. Accordingly, reporter fluorescence was determined in the nucleus (nuc) and in a ring around the nucleus (enuc), and the ratio enuc/nuc was evaluated (schematized in FIG. 1c). Thereafter, the assay design was functionally validated. […] The assay also reliably detected trafficking defects in the secretory pathway. […] Taken together, the assay was validated for reliably detecting concentration and time dependent changes in trafficking and processing of the Notch reporter.
# Cells were seeded in 96-well plates at a density of 5000 cells/well in 100 μl medium. The next day, 100 μl medium containing the respective test compounds was added. Cells were incubated for 16 h, fixed and processed for automated microscopy. For the putative gamma-secretase inhibitors the enuc intensity was divided by the DAPT control and for the trafficking inhibitors normalized percentage inhibition against DAPT/DMSO controls of log 2 transformed nuc/enuc ratios were calculated. Relative activity values were read into “R” (http://www.r-project.org/) and EC50 estimates were calculated using four-parameter log-logistic fit with the package “drc”^51.
# Images were acquired on an ArrayScan VTi automated microscope (ThermoFisher) and numerical data were extracted with the Compartmental Analysis BioApplication of the bundled software suite. Compound screening raw data were collected at the FMP and data transformation was performed according to standard procedures (ref 17 and supp. Refs 6-7).
# [2] = system: γ-secretase; assay: In vitro γ-secretase assay with isolated membranes; assay type: biochemical; details: 37° C.
# Protocol: (§1) FIG. 3: Effect of compounds on NotchΔE-EGFP, APP and Klotho trafficking and processing. a) HEK293 stably expressing APPswe or Klotho (KI) were incubated with DAPT or compounds (10 μM) for 16 h. Media were collected, cells lysed and both assayed by Western blotting using indicated antibodies. m, mature; im, immature; s, shedded ectodomain; CTF, C-terminal fragment. b) Membranes from HeLa-NotchΔE-EGFP and APPswe cells were isolated and subjected to a γ-secretase in vitro assay in the presence of DAPT or compounds as indicated. NICD and AICD were detected by Western Blotting using antibodies against the C-terminus of APP (top) or antibodies specific for NICD (bottom). c) Quantitation from 5 independent experiments.
# To test whether FLI-06 affected other membrane proteins, Klotho, a type I protein processed like APP and Notch^20, was analyzed. […] To analyze γ-secretase activity, in vitro assays using isolated membranes were performed (FIG. 3b, c). Production of NICD-EGFP and AICD (APP intracellular domain) were assayed. Both were produced in vitro at 37° C. but not at 4° C., and their production was inhibited by DAPT.
# For assaying AICD formation, membranes of HEK293 cells stably expressing APP with the Swedish mutation were isolated and incubated for 4 h at 37° C. according to Sastre et al.^52. For assaying NICD formation, membranes from HeLa NotchΔE-EGFP cells were mixed with membranes from HeLa NotchΔE-EGFP cells that were pre-treated with 10 μM DAPT overnight to enrich substrate. After incubation samples were loaded onto either 8% SDS-PA gels (NICD) or 10-20% Tris-Tricine gels (AICD), blotted and probed with cleaved-Notch antibody or antibody 6687 against APP C-terminus^53. Chemoluminescence was quantified on a LAS-4000 (Fuji) with MultiGauge software.
# [3] = system: zebrafish embryos; assay: Zebrafish embryo Notch phenotype (somites, ngn1 qPCR and ISH); assay type: in vivo, zebrafish Danio rerio; details: for ngn1 positive cell clusters along the spinal cord (ISH): compared to DMSO-treated control embryos; for ngn1 mRNA levels (qPCR): relative to DMSO controls
# Protocol: (§2) Cells were incubated with DAPT or 10 μM of the indicated compounds (50 μM in case of FLI-15 and -20) and after 16 h a luciferase assay was performed. […] Changes in relative gene expression levels (fold change) relative to the expression levels in DMSO controls are represented as the mean+/−SD, asterisks indicate p<0.01. Each measurement was taken from two independent samples. Each reaction was measured in triplicate. Changes in the relative expression of ngn1 were standardized to the expression of the housekeeping gene ef1a at 20 hpf. c) ISH with riboprobes specific for ngn1 was performed on dechorionated stage 4 hpf zebrafish embryos. Anterior is to the left, dorsal to the top. Magnifications of the somite region (small box) are shown. Arrows indicate larger ngn1 clusters or stronger ngn1 staining. s, sensory neurons; i, intermediate neurons; m, motor neurons.
# FIG. 11: Selected compounds affect somite formation and neurogenesis in vivo in zebrafish embryos. a) Lateral view of typical representative phenotypes induced by DAPT treatment, which were used as a reference to score the effect of compounds. […] Images were taken at 24 hpf. b) Pie chart showing the cumulative relative frequency of the phenotypes in a) at 24 hpf in embryos treated with 20, 50 and 100 iM of the indicated compounds. c) ISH with riboprobes specific for ngn1 was performed on dechorionated stage 4 hpf zebrafish embryos. Anterior is to the left, dorsal to the top. Magnifications of the developing head (box) are shown. Arrows indicate larger ngn1 clusters or stronger ngn1 staining. t, telencephalon; p, protectum; h, hindbrain; d, diencephalon; tg, tegmentum; vrc, ventral rostral cluster.
# (§3) We wanted to test whether the results obtained with the NotchΔE-EGFP construct are relevant for endogenous Notch signaling. Therefore we made use of C2C12 cells, a well established model for muscle development that expresses endogenous Notch^21,22. After stimulating endogenous Notch signaling by transfecting the Notch ligand Delta, Notch activity was measured by a luciferase assay using a Notch reporter^15 in the presence or absence of compounds (FIG. 4a). […] Next, we tested whether selected compounds would affect Notch signaling in vivo. […] Compounds were added to dechorionated stage 4 hpf zebrafish embryos and the effects were analyzed after 24 h by morphological inspection of somite formation. Phenotypes were ranked to four categories, normal somites, mild somite defects, strong somite defects and developmental delay. […] As an additional parameter we decided to analyze Notch-dependent genes involved in neurogenesis. Primary neurogenesis in zebrafish involves the selection of neuroblasts (repressed by Notch) from proneural clusters (Notch expressing cells), a process regulated in a negative manner by Notch-dependent lateral inhibition^25. Accordingly, neuroblast cells that express the neuronal specification factor neurogenin (ngn1^26) became more abundant when Notch signaling was impaired, for instance upon DAPT treatment^23,27. qPCR analyses on mRNA extracted from equivalent sets of embryos was performed for ngn1 expression (FIG. 4b). […] To confirm the data obtained by qPCR, whole-mount in-situ hybridizations (ISH) using an ngn1 specific riboprobe were performed (FIG. 4c, FIG. 11c). […] Taken together, FLI-06, -14, -15, -19 and -20 inhibited endogenous Notch signaling in vitro and in vivo, corroborating the NotchΔE-EGFP reporter data.
# Embryos were obtained from natural spawning of wild-type TüAB strain adults, raised and staged according to supp. Ref 14. DAPT and compounds were applied at 50 iM in E3 embryo medium to zebrafish embryos with chorions torn but not completely removed from sphere stage until the stage of analysis, according to ref 23. Control embryos were mock treated with the same concentration of DMSO dissolved in E3 embryo medium. […]
# [4] = system: NotchΔE-EGFP; assay: Fluorescence microscopy of reporter localization in HeLa NotchΔE-EGFP cells; assay type: cell-based; details: 10 μM compound, 24 h
# Protocol: FIG. 10: Phenotypes of Notch inhibitors are fully reversible. HeLa NotchΔE-EGFP cells plated in LabTek coverglass were incubated for 18 h with 10 iM of indicated compounds, washed and incubated for indicated times in cell culture medium. Cells were imaged by live-microscopy. […] Scalebar, 10 im.
# For a detailed analysis of subcelluar distribution of NotchΔE/NICD the resolution of the HCS images was not sufficient. Therefore, the reporter cell line was plated on coverslips and incubated with 10 μM of individual compounds from the final hit list. After 24 h the localization of NotchΔE-EGFP/NICD-EGFP was determined by fluorescence microscopy. […] (FIG. 8).
# Immunofluorescence stainings were made using standard procedures^55. Imaging was performed on a Zeiss Axiovert200 or an Axio Imager, using 63× 1.4NA objectives and Zeiss Axiovision software. For live-imaging cells were plated on Lab-Tek chambered coverglass (Thermo-Fisher). Images were assembled and processed using Adobe Photoshop. For displaying weakly stained ER-tubules/sheets non-linear changes in gamma-settings were used.
# [5] = system: endogenous Notch signaling; assay: Luciferase Notch reporter assay in C2C12 cells transfected with Delta; assay type: cell-based; details: 10 μM, 16 h
# Protocol: as §2, §3
# Endogenous Notch signaling in C2C12 was determined by a luciferase assay using a 12xCSL-luciferase reporter and transfected Delta as described before^15.
# [6] = system: APP; assay: APP processing in HEK293 cells stably expressing APPswe; assay type: cell-based; details: 10 μM, 16 h
# Protocol: as §1
# To test if the compounds that affected NotchΔE-EGFP processing also affected APP processing, HEK293 cells were used that stably expressed APPswe, a mutated APP that yields robust amounts of Aβ^18. […] All other compounds had no effect on APPCTF or Aβ.
# APP, APPs, APPCTF and Aβ detection was as described before^54 using antibodies 22C11 for APP and APPs, 6687 for APPCTF and 3552 and 2D8 for Aβ. Klotho was detected as described in Bloch et al.^20. Chemoluminescence was quantified on a LAS-4000 (Fuji) with MultiGauge software.
# [7] = system: NotchΔE-EGFP; assay: Western blot of NotchΔE-EGFP processing in HeLa NotchΔE-EGFP lysates; assay type: cell-based; details: 10 μM, 18 h
# Protocol: FIG. 2: Selected compounds from final hit list show distinct phenotypes. Hela NotchΔE-EGFP cells were incubated with compounds (10 μM) for 18 h, fixed and analyzed by fluorescence microscopy (a) or lysed, separated by SDS-PAGE, blotted and probed with antibodies against GFP and NICD (b). Tubulin served as loading control. c) Quantitation of NotchΔE-EGFP accumulation and NICD production from 3-4 experiments as shown in (b). […] Arrows, plasma membrane; scalebar, 10 μm.
# Next, lysates of HeLa NotchΔE-EGFP cells treated with compounds were analyzed for processing of NotchΔE-EGFP by Western blot using antibodies specific for EGFP and NICD (FIG. 2b, c). The GFP antibody detected both the uncleaved reporter NotchΔE-EGFP and the γ-secretase product NICD-EGFP, whereas the NICD-specific antibody specifically detected cleaved NICD-EGFP. […] The observed effects were not cell type specific, as they were also apparent in U2OS cells stably expressing NotchΔE-EGFP (FIG. 9).
smiles,measurement,setting,value
COCCOC(=O)C1=C(C)NC2=C(C(=O)CC(c3ccc(Cl)cc3)C2)C1c1ccccc1F (stereo not drawn) [C3],activity in NotchΔE-EGFP cells (enuc/nuc ratios),[1],no activity
COCCOC(=O)C1=C(C)NC2=C(C(=O)CC(c3ccccc3)C2)C1c1ccccc1F (stereo not drawn) [C4],activity in NotchΔE-EGFP cells (enuc/nuc ratios),[1],no activity
COC(=O)C1=C(C)NC2=C(C(=O)CC(c3ccc(Cl)cc3)C2)C1c1ccccc1F (stereo not drawn) [C5],activity in NotchΔE-EGFP cells (enuc/nuc ratios),[1],no activity
"C[C@H](NC(=O)Cc1cc(F)cc(F)c1)C(=O)N[C@H](C(=O)OC(C)(C)C)c1ccccc1 [DAPT, reference compound]",cell viability by visual inspection,[1],viable at all times
same,t1/2 of decrease of NICD-EGFP fluorescence in the nucleus,[1]; 1 μM DAPT,4.7 ± 1.0 h
same,t9/10 of decrease of NICD-EGFP fluorescence in the nucleus,[1]; 1 μM DAPT,8.6 ± 2.9 h
same,NICD-EGFP and AICD production in isolated membranes,[2],inhibited
same,ngn1 positive cell clusters in the developing brain (ISH),"[3]; 50 μM, compared to DMSO controls",differentially expanded
same,ngn1 positive cell clusters along the spinal cord (ISH),[3]; 50 μM,expanded and denser clusters of ngn1 positive cells
same,ngn1 mRNA levels (qPCR),[3]; 50 μM,significantly increased
same,somite/morphological phenotype,"[3]; embryos treated from 4-6 hpf, scored at 24 hpf","either defective somitogenesis (mild), head and trunk malformation (strong) or developmental delay (delayed)"
same,localization of NotchΔE-EGFP/NICD-EGFP,[4],accumulated at the PM
COc1ccc(C(=O)O)cc1Nc1nc2ccccc2nc1NS(=O)(=O)c1ccc(Cl)cc1 [FLI-16],inhibition of endogenous Notch signaling,[5],strongly
same,NICD-EGFP and AICD production in isolated membranes,[2],did not affect in vitro γ-secretase activity
same,ngn1 positive cell clusters along the spinal cord (ISH),[3]; 50 μM,reduced
same,ngn1 mRNA levels (qPCR),[3]; 50 μM,did not induce significant changes
same,APPs (shedded ectodomain) secretion,[6],reduced APPs secretion
same,NotchΔE-EGFP processing,[7],no influence on NotchΔE-EGFP processing
same,localization of NotchΔE-EGFP/NICD-EGFP,[4],did not alter the reporter localization
COCCOC(=O)C1=C(C)NC2=C(C(=O)CC(c3ccccc3OC)C2)C1c1cccc(O)c1 (stereo not drawn) [HPI-1],activity in NotchΔE-EGFP cells (enuc/nuc ratios),[1],no activity
CC(C)C[C@@H](C=O)NC(=O)[C@H](CC(C)C)NC(=O)[C@H](CC(C)C)NC(=O)OCc1ccccc1 [MG132] (Cbz-Leu-Leu-Leu-aldehyde),change of reporter localization quantified by automated microscopy,[1],accumulation of NICD in the nucleus
CCCCCOC(=O)C1=C(C)NC2=C(C(=O)CC(C)(C)C2)C1c1ccc([N+](=O)[O-])cc1 (stereo not drawn) [ST216093],activity in NotchΔE-EGFP cells (enuc/nuc ratios),[1],show the desired activity
"CC1=C(C(=O)OC2CCCCC2)C(c2ccc([N+](=O)[O-])cc2)C2=C(CC(C)(C)C/C2=N\OCC(=O)O)N1 (stereo not drawn) [compound 6, E-2-(((3′-Cyclohexyloxycarbonyl-4″-nitrophenyl-2′,7′,7′-trimethyl-1′,4′,5′,6′,7′,8′-hexahydroquinoline-5′-ylidene)amino)oxy)acetic acid]",activity in NotchΔE-EGFP cells (enuc/nuc ratios),[1],entirely inactive
CC[C@@]1([C@@H]2O[C@@H]([C@H]3O[C@@](O)(CO)[C@H](C)C[C@@H]3C)C[C@@H]2C)CC[C@H]([C@]2(C)CC[C@]3(C[C@H](O)[C@@H](C)[C@@H]([C@@H](C)[C@@H](OC)[C@H](C)C(=O)O)O3)O2)O1 [monensin],change of reporter localization quantified by automated microscopy,[1],blocking the anterograde transport of NotchΔE-EGFP
